Source: patent US9816998B2, “Circulating exosomes as diagnostic/prognostic indicators and therapeutic targets of melanoma and other cancers” (Cornell University, priority 2011, dated 2017)

System: HGF/MET signaling
Assay: BM cell response to HGF after exosome pre-treatment: western blot of phospho-S6 kinase and phospho-ERK
Assay type: cell-based, mice
Conditions: 20 nM, before HGF addition
Description: Mice were sacrificed and BM was isolated by flushing the femur and tibia with staining media (1% BSA in PBS) using a 25G½″ needle (BD) and further disrupting it by pipeting. Cell suspensions were filtered through 70 μm cell strainers (BD) prior to centrifugation. Red blood cells (RBC) from BM suspensions were lysed using ACK Lysis Buffer (Invitrogen). To enrich for progenitors, lineage positive (Lin^+, i.e., CD5, CD45R, CD19, CD11b, Ly6G/C, 7-4, TER119 positive) BM cells were immunomagnetically depleted using the EasySep® Mouse Hematopoietic Progenitor Cell Enrichment Kit (Stem Cell Technologies) as per manufacturer's instructions. For in vitro BM treatment with exosomes, BM cells were flushed as above and cultured in Stem Span (Stem Cell Technologies) for 16 hours in the presence or absence of 20 μg/ml indicated exosomes. For HGF analysis BM cells were then stimulated with 5 ng/ml HGF (Peprotech) for 4 hours and collected for Western blot analysis in RIPA buffer as indicated below by adding phosphatase inhibitors (1 mM Sodium orthovanadate and 5 mM β-Glycerol phosphate). For MET signaling inhibition, cells were incubated with 20 nM Crizotinib (Selleck Bio) 1 hour before HGF stimulation.
Exosomes or cells were lysed with RIPA buffer containing a complete protease inhibitor tablet (Roche). Lysates were cleared by centrifugation at 14,000×g for 20 min. […]

SMILES: C[C@@H](Oc1cc(-c2cnn(C3CCNCC3)c2)cnc1N)c1c(Cl)ccc(F)c1Cl [Crizotinib]
- Phosphorylation of ERK after F10 exosome treatment: blocked the phosphorylation
- Phosphorylation of S6-kinase after F10 exosome treatment: blocked the phosphorylation
